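Method: 48-hour compound exposure of cells in 96-well plates, five concentrations, linear interpolation of endpoints. GI50 = concentration required for 50% inhibition of growth. At the TGI there is no net growth.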
Legend:
Assay in all cases: NCI anticancer screen, dose series, 48 h
BT-549 breast = test system: BT-549 breast
CAKI-1 renal = test system: CAKI-1 renal
HCT-15 colon = test system: HCT-15 colon
MCF7 breast = test system: MCF7 breast
NCI-H226 lung = test system: NCI-H226 lung
OVCAR-5 ovarian = test system: OVCAR-5 ovarian
SF-295 CNS = test system: SF-295 CNS
SN12C renal = test system: SN12C renal
SNB-75 CNS = test system: SNB-75 CNS
SW-620 colon = test system: SW-620 colon

| SMILES | GI50 (BT-549 breast) | TGI (BT-549 breast) | GI50 (CAKI-1 renal) | TGI (CAKI-1 renal) | GI50 (HCT-15 colon) | TGI (HCT-15 colon) | GI50 (MCF7 breast) | TGI (MCF7 breast) | GI50 (NCI-H226 lung) | TGI (NCI-H226 lung) | GI50 (OVCAR-5 ovarian) | TGI (OVCAR-5 ovarian) | GI50 (SF-295 CNS) | TGI (SF-295 CNS) | GI50 (SN12C renal) | TGI (SN12C renal) | GI50 (SNB-75 CNS) | TGI (SNB-75 CNS) | GI50 (SW-620 colon) | TGI (SW-620 colon) |
| --- | --- | --- | --- | --- | --- | --- | --- | --- | --- | --- | --- | --- | --- | --- | --- | --- | --- | --- | --- | --- |
| CC(C)[C@H]1CC[C@H]2[C@@H](CC[C@H]3[C@](C)(CN)CCC[C@]23C)C1 | 15.6 µM | 37.5 µM | 1.71 µM | 4.2 µM | 1.81 µM | 3.98 µM | 1.51 µM | 2.85 µM | 4.99 µM | 23.5 µM | 1.73 µM | 3.44 µM | 1.83 µM | 3.87 µM | 1.75 µM | 3.65 µM | 6.95 µM | 21.3 µM | 1.84 µM | 3.49 µM |
| Cn1cc(C2=C(c3cn(CCO)c4ccccc34)C(=O)NC2=O)c2ccccc21 | 3.14 µM | 11.9 µM | 3.79 µM | > 24.1 µM | 1.57 µM | > 25 µM | 1.24 µM | > 25 µM | 4.76 µM | > 19.6 µM | 10.9 µM | > 25 µM | 1.18 µM | 7.58 µM | 4.75 µM | > 25 µM | 0.634 µM | 6.5 µM | 1.21 µM | > 25 µM |
| CC/C(=C(/c1ccc(OCCN(C)C)cc1)c1ccc(OC(=O)CCC(=O)c2c(C)[nH]c(/C=C3\N=C(c4ccc[nH]4)C=C3OC)c2C)cc1)c1ccccc1 | 3.5 µM | 20.4 µM | 2.66 µM | 16 µM | 0.934 µM | 4.48 µM | < 0.0217 µM | 2.66 µM | 3.54 µM | 22.5 µM | 5.75 µM | 21.6 µM | 2.61 µM | 9.06 µM | 3.09 µM | 18.9 µM | 2.45 µM | 9.86 µM | 0.76 µM | 2.57 µM |
